Assay results as given in patent US11001569B2, “6-membered heteroaromatic substituted cyanoindoline derivatives as NIK inhibitors” (Janssen Pharmaceutica NV, priority 2016, dated 2021).

Key:
[1] = molecular target: recombinant human NF-kappaB-inducing Kinase (NIK/MAP3K14) (Homo sapiens, UniProt Q99558); assay: Inhibition of auto-phosphorylation of recombinant human NIK/MAP3K14 activity (AlphaScreen); format: biochemical; conditions: 25 microM ATP, averaged over all measurements on all batches
[2] = test system: P-IKKα levels in L363 (NIK translocated multiple myeloma) cells; assay: Effect of compounds on P-IKKα levels in L363 cells (Mesoscale sandwich immuno-assay); format: cell-based, human; conditions: Homo sapiens, L-363, 2 h, 2 hr treatment, averaged values, read-out: Inhibition of pIKKα_L-363 (IC50 (nM))
How it was run: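 BAFF-stimulated (1 μg/ml stock) L363 cells preincubated 24 hr at 37° C, then treated 2 hr with compound (final 1% DMSO, 8-point 1:3 dilutions). Lysate P-IKKα measured by Mesoscale sandwich immunoassay; IC50 from sigmoidal fit of % inhibition versus log concentration.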

[3] = test system: JJN-3 (NIK translocated) multiple myeloma cells; assay: Antiproliferative activity on JJN-3 multiple myeloma cells (CellTiter-Glo); format: cell-based, human; conditions: Homo sapiens, JJN-3, 96 h, JJN-3 (NIK translocated) cells, 96 hr treatment, averaged values, read-out: JJN-3 Proliferation inhibition (IC50 (nM))
How it was run: (§1)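 Cells plated at 15000 (JJN3) or 20000 (KMS12BM) per well and treated 96 h at 37° C, 5% CO2, final DMSO 0.3%, 9-point 1:3 dilutions. Viability by CellTiter-Glo luminescence; time-zero blank subtracted, growth expressed as percent of untreated control.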

[4] = test system: KMS12-BM (NIK WT) multiple myeloma cells; assay: Antiproliferative activity on KMS12-BM multiple myeloma cells (CellTiter-Glo); format: cell-based, human; conditions: Homo sapiens, KMS-12-BM, 96 h, 96 hr treatment, averaged values, read-out: KMS-12 Proliferation inhibition (IC50 (nM))
How it was run: as §1

recombinant human NF-kappaB-inducing Kinase (NIK/MAP3K14), sequence (Q99558 whole entry): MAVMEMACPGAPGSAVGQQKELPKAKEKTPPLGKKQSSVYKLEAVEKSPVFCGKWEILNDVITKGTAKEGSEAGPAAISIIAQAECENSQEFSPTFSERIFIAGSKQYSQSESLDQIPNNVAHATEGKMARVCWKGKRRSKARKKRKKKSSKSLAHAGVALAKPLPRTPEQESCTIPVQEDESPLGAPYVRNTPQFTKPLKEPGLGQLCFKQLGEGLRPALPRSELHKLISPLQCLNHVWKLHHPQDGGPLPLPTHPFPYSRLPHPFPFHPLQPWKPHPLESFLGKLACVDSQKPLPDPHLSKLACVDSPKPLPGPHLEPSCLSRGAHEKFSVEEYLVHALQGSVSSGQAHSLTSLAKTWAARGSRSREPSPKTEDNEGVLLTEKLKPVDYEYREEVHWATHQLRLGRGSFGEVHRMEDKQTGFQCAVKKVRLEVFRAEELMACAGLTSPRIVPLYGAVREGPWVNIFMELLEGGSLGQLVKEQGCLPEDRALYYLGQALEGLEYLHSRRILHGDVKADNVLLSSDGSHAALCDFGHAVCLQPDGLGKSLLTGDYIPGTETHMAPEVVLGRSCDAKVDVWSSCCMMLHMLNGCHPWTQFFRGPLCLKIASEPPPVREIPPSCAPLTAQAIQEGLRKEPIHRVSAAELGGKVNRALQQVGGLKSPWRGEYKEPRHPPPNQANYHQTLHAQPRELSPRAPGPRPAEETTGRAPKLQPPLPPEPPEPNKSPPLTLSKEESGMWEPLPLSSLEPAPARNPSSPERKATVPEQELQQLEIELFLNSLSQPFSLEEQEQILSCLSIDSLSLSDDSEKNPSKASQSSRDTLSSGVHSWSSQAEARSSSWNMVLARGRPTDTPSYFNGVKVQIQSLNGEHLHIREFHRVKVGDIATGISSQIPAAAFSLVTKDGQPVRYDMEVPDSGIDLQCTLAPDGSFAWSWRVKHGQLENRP

Compound	IC50 [1] [nM]	IC50 [2] [nM]	IC50 [3] [nM]	IC50 [4] [nM]	melting point [°C]
COc1cnc(C)cc1Nc1nccc(-c2cc(C#N)c3c(c2)[C@@](C)(CO)CN3)n1 [Compound 162]	3	1.3	60	> 10000	> 260
Cc1ncc(C2CCN(C)CC2)cc1Nc1nccc(-c2cc(C#N)c3c(c2)[C@@](C)(CO)CN3)n1 [Compound 164]	102	1180	1180	1660	121
Cc1cc(Nc2nccc(-c3cc(C#N)c4c(c3)[C@@](C)(CO)CN4)n2)c(C)cn1 [Compound 167]	1.7	2.8	30	> 10000	263
COc1nc(C)c(Nc2nccc(-c3cc(C#N)c4c(c3)[C@@](C)(CO)CN4)n2)cc1C [Compound 168]	3	2.4	39	> 10000	260
Cc1ncc(CO)cc1Nc1nccc(-c2cc(C#N)c3c(c2)[C@@](C)(CO)CN3)n1 [Compound 169]	2.7	9.9	263	4900	> 260
Cc1cnc(C#N)cc1Nc1nccc(-c2cc(C#N)c3c(c2)[C@@](C)(CO)CN3)n1 [Compound 170]	1.1	1	5	> 10000	279

Next, values leading:

IC50 [1] [nM]	IC50 [2] [nM]	IC50 [3] [nM]	IC50 [4] [nM]	melting point [°C]	Compound
15.1	69.2	933	> 10000	225	Cc1cnc(C2CCOCC2)c(Nc2nccc(-c3cc(C#N)c4c(c3)[C@@](C)(CO)CN4)n2)c1 [Compound 173]
5.5	21.4	205	> 10000	115	COCCCc1ncc(C)cc1Nc1nccc(-c2cc(C#N)c3c(c2)[C@@](C)(CO)CN3)n1 [Compound 177]
15.1	110	49	> 10000	156	Cc1cnc(CCNC2CC2)c(Nc2nccc(-c3cc(C#N)c4c(c3)[C@@](C)(CO)CN4)n2)c1 [Compound 182]
15.8	40.7	63	> 10000	209	COc1ncc(C(F)(F)F)cc1Nc1nccc(-c2cc(C#N)c3c(c2)[C@@](C)(CO)CN3)n1 [Compound 183]
